Measurements: ChEMBL document CHEMBL2440100, “Therapeutic potential of the peptide leucine arginine as a new nonplant bowman-birk-like serine protease inhibitor” (J Med Chem, 2013)
Activity calls are given as the source filed them. The calls are words filed in the database; no cut-off is given here. Where a SMILES comes first, the peptide text is derived from it. Bridges are numbered along the chain shown (N, C = ends).

Experiments:
Mus musculus [1] = species: Mus musculus; assay: Antiasthmatic activity in OVA-immunized BALB/c mouse acute asthma model assessed as reduction of IgE level in serum at 100 nM treated intranasally on days 15, 16, 22, and 23 at 30 mins before OVA challenge; format: functional, organism-based
Mus musculus [2] = species: Mus musculus; assay: Antiasthmatic activity in OVA-immunized BALB/c mouse chronic asthma model assessed as reduction of collagen and old fibrin at 100 nM treated intranasally on days 15, 16, 22, and 23 at 30 mins before OVA challenge measured on day 71 by martius scarlet blue-staining; format: functional, organism-based
Mus musculus [3] = species: Mus musculus; assay: Antiasthmatic activity in OVA-immunized BALB/c mouse chronic asthma model assessed as reduction of methacholine-induced airway hyperreactivity at 100 nM treated intranasally on days 15, 16, 22, and 23 at 30 mins before OVA challenge measured on day 71; format: functional, organism-based
[4] = Inhibition of bovine trypsin using benzoyl-L-arginine p-nitroanilide as substrate after 5 to 60 mins; design: species or system Bos taurus
Mus musculus [5] = species: Mus musculus; assay: Antiasthmatic activity in OVA-immunized BALB/c mouse acute asthma model assessed as decrease in number of eosinophils in BAL fluid at 100 nM treated intranasally on days 15, 16, 22, and 23 at 30 mins before OVA challenge; format: functional, organism-based
Mus musculus [6] = species: Mus musculus; assay: Antiasthmatic activity in OVA-immunized BALB/c mouse acute asthma model assessed as reduction of IgG2a level in serum at 100 nM treated intranasally on days 15, 16, 22, and 23 at 30 mins before OVA challenge; format: functional, organism-based
Mus musculus [7] = species: Mus musculus; assay: Antiasthmatic activity in OVA-immunized BALB/c mouse chronic asthma model assessed as inhibition of airway inflammation at 100 nM treated intranasally on days 15, 16, 22, and 23 at 30 mins before OVA challenge measured on day 71; format: functional, organism-based
Mus musculus [8] = species: Mus musculus; assay: Antiasthmatic activity in OVA-immunized BALB/c mouse chronic asthma model assessed as reduction of total lung collagen level at 100 nM treated intranasally on days 15, 16, 22, and 23 at 30 mins before OVA challenge measured on day 71 by MSB-staining; format: functional, organism-based
Mus musculus [9] = species: Mus musculus; assay: Antiasthmatic activity in OVA-immunized BALB/c mouse chronic asthma model assessed as decrease in number of eosinophils in BAL fluid at 100 nM treated intranasally on days 15, 16, 22, and 23 at 30 mins before OVA challenge measured on day 71; format: functional, organism-based
Mus musculus [10] = species: Mus musculus; assay: Antiasthmatic activity in OVA-immunized BALB/c mouse acute asthma model assessed as reduction of methacholine-induced airway hyperreactivity at 100 nM treated intranasally on days 15, 16, 22, and 23 at 30 mins before OVA challenge; format: functional, organism-based
Mus musculus [11] = species: Mus musculus; assay: Antiasthmatic activity in OVA-immunized BALB/c mouse acute asthma model assessed as reduction of mucus production in PAS-stained lung section at 100 nM treated intranasally on days 15, 16, 22, and 23 at 30 mins before OVA challenge; format: functional, organism-based
Mus musculus [12] = species: Mus musculus; assay: Antiasthmatic activity in OVA-immunized BALB/c mouse chronic asthma model assessed as plasma histamine release at 0.1 uM treated intranasally after 5 mins by immunoassay; format: functional, organism-based
Mus musculus [13] = species: Mus musculus; assay: Antiasthmatic activity in OVA-immunized BALB/c mouse acute asthma model assessed as reduction of airway inflammation at 100 nM treated intranasally on days 15, 16, 22, and 23 at 30 mins before OVA challenge by hematoxylin and eosin staining; format: functional, organism-based
Mus musculus [14] = species: Mus musculus; assay: Antiasthmatic activity in OVA-immunized BALB/c mouse chronic asthma model assessed as reduction of IgE level in serum at 100 nM treated intranasally on days 15, 16, 22, and 23 at 30 mins before OVA challenge measured on day 71; format: functional, organism-based
Mus musculus [15] = species: Mus musculus; assay: Antiasthmatic activity in OVA-immunized BALB/c mouse chronic asthma model assessed as inhibition of airway remodeling at 100 nM treated intranasally on days 15, 16, 22, and 23 at 30 mins before OVA challenge measured on day 71; format: functional, organism-based
Mus musculus [16] = species: Mus musculus; assay: Antiasthmatic activity in OVA-immunized BALB/c mouse chronic asthma model assessed as reduction of 8-isoprostane level in serum at 10 uM treated intranasally by immunoassay; format: functional, organism-based
Mus musculus [17] = species: Mus musculus; assay: Antiasthmatic activity in OVA-immunized BALB/c mouse chronic asthma model assessed as inhibition of tryptase-like protease activity in BAL fluid using tosyl-gly […]-lys-pNA as substrate at 100 nM after 1 hr relative to control; format: functional
Mus musculus [18] = species: Mus musculus; assay: Antiasthmatic activity in OVA-immunized BALB/c mouse chronic asthma model assessed as reduction of area of proliferating smooth muscle cell at 100 nM treated intranasally on days 15, 16, 22, and 23 at 30 mins before OVA challenge measured on day 71 by PCNA+-staining; format: functional, organism-based
Mus musculus [19] = species: Mus musculus; assay: Antiasthmatic activity in OVA-immunized BALB/c mouse chronic asthma model assessed as reduction of airway inflammation at 100 nM treated intranasally on days 15, 16, 22, and 23 at 30 mins before OVA challenge by hematoxylin and eosin staining measured on day 71; format: functional, organism-based
Mus musculus [20] = species: Mus musculus; assay: Antiasthmatic activity in OVA-immunized BALB/c mouse acute asthma model assessed as reduction of methacholine-induced lung resistance at 100 nM treated intranasally on days 15, 16, 22, and 23 at 30 mins before OVA challenge; format: functional, organism-based
Mus musculus [21] = species: Mus musculus; assay: Antiasthmatic activity in lymphnode cells isolated from 25 days OVA-immunized BALB/c mouse acute asthma model assessed as reduction of IL-13 and IL-5 production at 100 nM measured after 3 days re-stimulation by ELISA; format: functional, cell-based
Splenocyte [22] = assay: Antiasthmatic activity in splenocytes isolated from 25 days OVA-immunized BALB/c mouse acute asthma model assessed as reduction of IL-13 and IL-5 production at 100 nM measured after 3 days re-stimulation by ELISA; format: functional, cell-based
Mus musculus [23] = species: Mus musculus; assay: Antiasthmatic activity in OVA-immunized BALB/c mouse chronic asthma model assessed as reduction of decrease in smooth muscle area at 100 nM treated intranasally on days 15, 16, 22, and 23 at 30 mins before OVA challenge measured on day 71 by alpha-SMA-staining; format: functional, organism-based; conditions: Muscle tissue
Mus musculus [24] = species: Mus musculus; assay: Antiasthmatic activity in OVA-immunized BALB/c mouse chronic asthma model assessed as inhibition of tryptase-like protease activity in BAL fluid using tosyl-gly […]-lys-pNA as substrate after 1 hr; format: functional, organism-based
Mus musculus [25] = species: Mus musculus; assay: Antiasthmatic activity in OVA-immunized BALB/c mouse chronic asthma model assessed as reduction of mMCP-1 level in serum at 100 nM treated intranasally at 30 mins before OVA challenge measured after 30 mins by ELISA; format: functional, organism-based
Mus musculus [26] = species: Mus musculus; assay: Antiasthmatic activity in lymphnode cells isolated from 25 days OVA-immunized BALB/c mouse acute asthma model assessed as reduction of IFN-gamma production at 100 nM measured after 3 days re-stimulation by ELISA; format: functional, cell-based
Mus musculus [27] = species: Mus musculus; assay: Antiasthmatic activity in OVA-immunized BALB/c mouse chronic asthma model assessed as plasma histamine release at 10 uM treated intranasally after 5 mins by immunoassay; format: functional, organism-based
Splenocyte [28] = assay: Antiasthmatic activity in splenocytes isolated from 25 days OVA-immunized BALB/c mouse acute asthma model assessed as reduction of IFN-gamma production at 100 nM measured after 3 days re-stimulation by ELISA; format: functional, cell-based

| SMILES | Activity (Mus musculus [1]) | Activity (Mus musculus [2]) | Activity (Mus musculus [3]) | Ki [4] [nM] | Activity (Mus musculus [5]) | Activity (Mus musculus [6]) | Activity (Mus musculus [7]) | Activity (Mus musculus [8]) | Activity (Mus musculus [9]) | Activity (Mus musculus [10]) | Activity (Mus musculus [11]) | Activity (Mus musculus [12]) | Activity (Mus musculus [13]) | Activity (Mus musculus [14]) | Activity (Mus musculus [15]) | Activity (Mus musculus [16]) | inhibition (INH) (Mus musculus [17]) [%] | Activity (Mus musculus [18]) | Activity (Mus musculus [19]) | Activity (Mus musculus [20]) | further results |
| --- | --- | --- | --- | --- | --- | --- | --- | --- | --- | --- | --- | --- | --- | --- | --- | --- | --- | --- | --- | --- | --- |
| CC[C@H](C)[C@@H]1NC(=O)[C@@H]2CCCN2C(=O)[C@@H]2CCCN2C(=O)[C@H]([C@@H](C)CC)NC(=O)[C@H](CO)NC(=O)[C@H](CCCCN)NC(=O)[C@H]([C@@H](C)O)NC(=O)[C@@H]2CSSC[C@H](NC1=O)C(=O)N[C@@H](Cc1ccccc1)C(=O)N1CCC[C@H]1C(=O)N[C@@H](CC(=O)O)C(=O)NCC(=O)N[C@@H](CCCNC(=N)N)C(=O)N2 | Active | Active | Active | 8 | Active | inactive | Active | Active | Active | Active | Active | inactive | Active | Active | Active | inactive | 60 | Active | Active | Active | Activity (Mus musculus [21]): Active; Activity (Splenocyte [22]): Active; Activity (Mus musculus [23]): Active; inhibition (Mus musculus [24]): Dose-dependent effect; Activity (Mus musculus [25]): Active |
| CC(C)C[C@H](N)C(=O)N[C@H](C(=O)N[C@@H](CCCNC(=N)N)C(=O)NCC(=O)N[C@H]1CSSC[C@@H](C(=O)N[C@@H](Cc2ccccc2)C(=O)N[C@H](C(=O)N[C@@H](CCCNC(=N)N)C(=O)O)C(C)C)NC(=O)[C@@H]2CCCN2C(=O)[C@H](CCCCN)NC(=O)[C@@H]2CCCN2C(=O)[C@@H]2CCCN2C(=O)[C@H](Cc2ccc(O)cc2)NC(=O)[C@H](CO)NC(=O)[C@H](CCCCN)NC(=O)[C@H]([C@@H](C)O)NC(=O)[C@H](Cc2c[nH]c3ccccc23)NC1=O)C(C)C (H-LVRGCWTKSYPPKPCFVR-OH; disulfide 5-15) | Active | Active | Active | 110 | Active | inactive | Active | Active | Active | Active | Active | inactive | Active | Active | Active | Active | 60 | Active | Active | Active | Activity (Mus musculus [26]): inactive; Activity (Mus musculus [27]): Active; Activity (Splenocyte [28]): Active; Activity (Mus musculus [21]): Active; Activity (Splenocyte [22]): Active; Activity (Mus musculus [23]): Active; inhibition (Mus musculus [24]): Dose-dependent effect; Activity (Mus musculus [25]): Active |
